The subject of assay [1] is STING activation (IFN-β production in THP-1 cells). The experiment in a line: Human IFN-β production inhibition test by cGAMP stimulation in THP-1 cells. On the set-up: IFN-β bioinhibitory activity: scale not given here. Conditions: 2'3'-cGAMP transfection, 18 hours, IFN-β ELISA; for IC50: Homo sapiens, read-out: IFN-β bioinhibitory activity. In kind it is cell-based. The protocol: Human IFN-β production inhibition test by cGAMP stimulation
The inhibitory activity of test compounds against STING activation was evaluated by measuring the amount of IFN-β produced when human monocytic cell line THP-1 cells were stimulated with the endogenous ligand cGAMP.
After seeding THP-1 cells (ATCC) in a 96-well plate, PMA (Santa Cruz Biotechnology) adjusted to a concentration of 100 nM after addition was added, and incubated at 37° C. in a 5% CO2 incubator. It was cultured overnight (RPMI1640 medium containing 10% FBS, 50 U/mL penicillin/50 μg/mL streptomycin). A test compound solution adjusted to a final concentration of 0.001 to 1 μM was added to each well of this plate and cultured for 1 hour in a CO2 incubator (DMSO final concentration 0.1%). 0.12 μg/well of 2′3′-cGAMP (Invivogen, #tlrl-nacga23) was introduced into the cells by transfection using Lipofectamine2000 (Invitrogen) and cultured in a CO incubator for an additional 18 hours. After collecting the culture supernatant from each well, the amount of human IFN-β produced in the culture supernatant was measured by ELISA using R&D human IFN-β Duoset (R&D Systems).
Assuming that the human IFN-β production amount of the test compound-free and cGAMP-added group is 100%, and the human IFN-β production amount of the test compound-free and cGAMP-free group is 0%, the IC50 value was determined by regression analysis of the inhibitory rate determined from the amount of human IFN-β production at each compound concentration and the concentration of the test compound (logarithm).
For orientation: ELISA stands for enzyme-linked immunosorbent assay.

The next assay concerns the target T1, human STING (hSTING) (Homo sapiens, UniProt Q86WV6).
T1 construct: host or cells: HEK-Blue ISG cells (HEK293-derived SEAP reporter line)
The experiment in a line: Inhibition test of intracellular human STING (hSTING) pathway using SEAP reporter cells (HEK-Blue ISG), stimulation with Compound 3. The format is cell-based. On the set-up: hSTING inhibitory activity: scale not given here. Conditions: Compound 3 10 nM stimulation, 21 hours; for IC50: read-out: hSTING inhibitory activity. An outline of the steps: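 IC50 derived by regressing inhibition rate against log compound concentration (0.1 to 10 μM final, added 1 h before agonist), with 0% and 100% set by wells without and with 10 nM Compound 3. SEAP colour reaction read after 21 h stimulation of HEK-Blue ISG reporter cells.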

Structures are written as SMILES. Structures can show the parent of a compound that is named as a salt.

T1 sequence (Q86WV6 whole entry H232R): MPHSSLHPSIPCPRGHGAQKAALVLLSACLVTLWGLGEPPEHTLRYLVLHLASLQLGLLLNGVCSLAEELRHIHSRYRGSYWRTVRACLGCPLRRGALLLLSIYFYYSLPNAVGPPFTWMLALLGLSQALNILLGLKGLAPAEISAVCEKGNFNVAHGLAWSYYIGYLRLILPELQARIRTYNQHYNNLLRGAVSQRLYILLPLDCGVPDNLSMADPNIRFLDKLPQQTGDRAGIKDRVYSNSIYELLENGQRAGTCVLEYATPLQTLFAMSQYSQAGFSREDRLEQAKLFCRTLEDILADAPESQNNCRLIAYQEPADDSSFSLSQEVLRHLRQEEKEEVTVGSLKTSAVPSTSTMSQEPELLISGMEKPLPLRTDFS

As for `CN(C)n1c(Nc2c[nH]c3ccc(Cl)cc23)nc2cc(C(F)(F)F)ccc21` [Embodiment 216, N2-(5-Chloro-1H-indol-3-yl)-N1,N1-dimethyl-5-(trifluoromethyl)-1H-benzo[d]imidazole-1,2-diamine], the IFN-β bioinhibitory activity result in assay [1] is “* * *”. For the same compound, on human STING (hSTING), the hSTING inhibitory activity result is “* * *”.
In the case of `Fc1ccc2c(c1)nc(Nc1c[nH]c3ccc(Cl)cc13)n2C1CC1` [Embodiment 189, N-(5-Chloro-1H-indol-3-yl)-1-cyclopropyl-5-fluoro-1H-benzo[d] imidazol-2-amine], the IC50 in assay [1] lay in the range of 100 to 1000 nM. Also, the hSTING inhibitory activity entry on human STING (hSTING) is reported as “* *”.
The like results for `Clc1ccc2[nH]cc(Nc3nc4cc(N5CCCCC5)ccc4[nH]3)c2n1` [Embodiment 151, N-(5-Chloro-1H-pyrrolo[3,2-b]pyridin-3-yl)-5-(piperidin-1-yl)-1H-benzo[d]imidazol-2-amine] were, in that order, 100 to 1000 nM and “* *”.
Turning to `COc1ccc2c(c1)nc(Nc1c[nH]c3ccc(Cl)nc13)n2C` [Embodiment 159, N-(5-Chloro-1H-pyrrolo[3,2-b]pyridin-3-yl)-5-methoxy-1-methyl-1H-benzo[d]imidazol-2-amine], the IC50 was in the range of 100 to 1000 nM in assay [1] and 1000 to 10000 nM at human STING (hSTING).
Take `CC(C)n1c(Nc2c[nH]c3ccc(Cl)nc23)nc2cc(Oc3ccccc3)ccc21` [Embodiment 116, N-(5-Chloro-1H-pyrrolo[3,2-b]pyridin-3-yl)-1-isopropyl-5-phenoxy-1H-benzo[d]imidazol-2-amine]: the IC50 in assay [1] is 100 to 1000 nM. The hSTING inhibitory activity entry at human STING (hSTING) was “* * *”.
As for `CCn1c(Nc2c[nH]c3ccc(Cl)cc23)nc2cc(OC(F)(F)F)ccc21` [Embodiment 251, N-(5-Chloro-1H-indol-3-yl)-1-ethyl-5-(trifluoromethoxy)-1H-benzo [d]imidazol-2-amine], the IFN-β bioinhibitory activity entry in assay [1] is “* *”. Moreover, the hSTING inhibitory activity result on human STING (hSTING) was “* * *”.
As for `Fc1ccc2[nH]c(Nc3c[nH]c4ccc(Cl)nc34)nc2c1F` [Embodiment 82, N-(5-Chloro-1H-pyrrolo[3,2-b]pyridin-3-yl)-4,5-difluoro-1H-benzo[d]imidazol-2-amine], the IFN-β bioinhibitory activity result in assay [1] is “* *”. Further, at human STING (hSTING), the hSTING inhibitory activity entry is reported as “* *”.
As to `Cn1c(Nc2c[nH]c3ccc(Br)cc23)nc2ccccc21` [Example 18, N-(5-bromo-1H-indol-3-yl)-1-methyl-1H-benzo[d]imidazol-2-amine], the IC50 in assay [1] was not below 1000 nM. Moreover, the hSTING inhibitory activity entry on human STING (hSTING) was “* *”.
Consider `Cn1c(Nc2c[nH]c3ccc(Cl)cc23)nc2ccc(Oc3ccc(F)cc3)cc21` [Embodiment 195, N-(5-Chloro-1H-indol-3-yl)-6-(4-fluorophenoxy)-1-methyl-1H-benzo[d]imidazol-2-amine], for which the IFN-β bioinhibitory activity entry in assay [1] is “* *”. The hSTING inhibitory activity entry at human STING (hSTING) is listed as “* * *”.
Consider `Brc1ccc2[nH]cc(Nc3nc4cc(Oc5ccccc5)ccc4[nH]3)c2n1` [Example 12, N-(5-bromo-1H-pyrrolo[3,2-b]pyridin-3-yl)-5-phenoxy-1H-benzo[d]imidazol-2-amine], for which the IC50 in assay [1] was in the range of 100 to 1000 nM. Besides, the hSTING inhibitory activity entry at human STING (hSTING) is reported as “* *”.
On to `CN(C)c1cccc(Oc2ccc3[nH]c(Nc4c[nH]c5ccc(Br)cc45)nc3c2)c1` [Example 26, N-(5-bromo-1H-indol-3-yl)-5-[3-(dimethylamino)phenoxy]-1H-benzo[d]imidazol-2-amine], for which the IFN-β bioinhibitory activity result in assay [1] is recorded as “* *”. In addition, at human STING (hSTING), the hSTING inhibitory activity result is reported as “* *”.
As to `Fc1ccc(Oc2ccc3nc(Nc4c[nH]c5ccc(Cl)nc45)n(C4CC4)c3c2)cc1` [Embodiment 187, N-(5-chloro-1H-pyrrolo[3,2-b]pyridin-3-yl)-1-cyclopropyl-6-(4-fluorophenoxy)-1H-benzo[d] imidazole-2-amine], the IC50 in assay [1] is 100 to 1000 nM. The hSTING inhibitory activity entry at human STING (hSTING) is reported as “* *”.
Taken in the same sequence, the figures for `Clc1cnc2[nH]cc(Nc3nc4cc(Oc5ccccc5)ccc4[nH]3)c2c1` [Embodiment 73, N-(5-Chloro-1H-pyrrolo[2,3-b]pyridin-3-yl)-5-phenoxy-1H-benzo[d]imidazol-2-amine formate] were 100 to 1000 nM and “* * *”.
For `Fc1cccc2[nH]c(Nc3c[nH]c4ccc(Br)cc34)nc12` [Example 25, N-(5-bromo-1H-indol-3-yl)-4-fluoro-1H-benzo[d]imidazol-2-amine], the IFN-β bioinhibitory activity entry in assay [1] was “* *”. Besides, the hSTING inhibitory activity entry on human STING (hSTING) is listed as “* *”.
For `CN(C)n1c(Nc2c[nH]c3ccc(Cl)cc23)nc2ccc(C(F)(F)F)cc21` [Embodiment 266, N2-(5-Chloro-1H-indol-3-yl)-N1, N1-dimethyl-6-(trifluoromethyl)-1H-benzo[d]imidazole-1,2-diamine], the IC50 in assay [1] is 100 to 1000 nM. In addition, the hSTING inhibitory activity entry on human STING (hSTING) is recorded as “* *”.
Regarding `FC(F)(F)c1ccc2c(c1)nc(Nc1c[nH]c3ccc(Cl)cc13)n2CC1CC1` [Embodiment 215, N-(5-Chloro-1H-indol-3-yl)-1-(cyclopropylmethyl)-5-(trifluoromethyl)-1H-benzo[d] imidazol-2-amine], the IFN-β bioinhibitory activity result in assay [1] is “* *”. The hSTING inhibitory activity result on human STING (hSTING) is “* * *”.
Taken in the same sequence, the figures for `Fc1cc(C(F)(F)F)cc2nc(Nc3c[nH]c4ccc(Cl)cc34)n(C3CC3)c12` [Embodiment 233, N-(5-Chloro-1H-indol-3-yl)-1-cyclopropyl-7-fluoro-5-(trifluoromethyl)-1H-benzo[d]imidazol-2-amine] were “* *” and “* * *”.
In the case of `C=C(C)c1ccnc2c(Nc3nc4cc(Oc5ccccc5)ccc4[nH]3)c[nH]c12` [Embodiment 144, 5-phenoxy-N-[7-(prop-1-en-2-yl)-1H-pyrrolo[3,2-b]pyridin-3-yl]-1H-benzo[d]imidazole-2-amine], in assay [1], the IC50 is not below 1000 nM. For the same compound, the hSTING inhibitory activity result at human STING (hSTING) is “* *”.
In the case of `CCc1ccc2[nH]cc(Nc3nc4ccc(Oc5ccc(F)cc5)cc4n3C3CC3)c2n1` [Embodiment 190, 1-Cyclopropyl-N-(5-ethyl-1H-pyrrolo[3,2-b]pyridin-3-yl)-6-(4-fluorophenoxy)-1H-benzo[d]imidazole-2-amine formate], the IC50 in assay [1] is not below 1000 nM; on human STING (hSTING), 1000 to 10000 nM.
With `OCCCn1c(Nc2c[nH]c3ccc(Cl)cc23)nc2cc(C(F)(F)F)ccc21` [Embodiment 260, 3-{2-[(5-Chloro-1H-indol-3-yl)amino]-5-(trifluoromethyl)-1H-benzo [d]imidazol-1-yl]propan-1-oar], the IC50 in assay [1] lay in the range of 100 to 1000 nM. The hSTING inhibitory activity result at human STING (hSTING) is “* *”.
Taken in the same sequence, the figures for `N#CCCn1c(Nc2c[nH]c3ccc(Cl)cc23)nc2cc(C(F)(F)F)ccc21` [Embodiment 259, 3-{2-[(5-chloro-1H-indol-3-yl)amino]-5-(trifluoromethyl)-1H-benzo [d]imidazol-1-yl]propanenitrile] were 100 to 1000 nM and “* *”.
With `Cn1c(Nc2c[nH]c3ncc(Cl)cc23)nc2cc(C(F)(F)F)ccc21` [Embodiment 109, N-(5-Chloro-1H-pyrrolo[2,3-b]pyridin-3-yl)-1-methyl-5-(trifluoromethyl)-1H-benzo[d] imidazol-2-amine], the IC50 in assay [1] was 100 to 1000 nM. Besides, the hSTING inhibitory activity entry at human STING (hSTING) is recorded as “* *”.
`Brc1ccc2[nH]cc(Nc3nc4c(Br)cccc4[nH]3)c2c1` [Example 24, 4-bromo-N-(5-bromo-1H-indol-3-yl)-1H-benzo[d]imidazol-2-amine]: in assay [1], the IFN-β bioinhibitory activity entry is reported as “* *”. At human STING (hSTING), the hSTING inhibitory activity result is “* *”.
Consider `Cn1c(Nc2c[nH]c3ccc(Cl)cc23)nc2cc(C(F)(F)F)ccc21` [Embodiment 56, N-(5-chloro-1H-indol-3-yl)-1-methyl-5-(trifluoromethyl)-1H-benzo[d]imidazol-2-amine], for which the IFN-β bioinhibitory activity entry in assay [1] was “* * *”. Moreover, at human STING (hSTING), the hSTING inhibitory activity result is given as “* * *”.
`Fc1ccc(Oc2ccc3nc(Nc4c[nH]c5ccc(Cl)cc45)n(C4CC4)c3c2)cc1` [Embodiment 196, N-(5-Chloro-1H-indol-3-yl)-1-cyclopropyl-6-(4-fluorophenoxy)-1H-benzo[d]imidazol-2-amine]: in assay [1], the IFN-β bioinhibitory activity entry was “* *”. For the same compound, the hSTING inhibitory activity result at human STING (hSTING) is recorded as “* * *”.
The like results for `Cn1c(Nc2c[nH]c3ccc(Cl)nc23)nc2cc(OC(F)(F)F)ccc21` [Embodiment 210, N-(5-Chloro-1H-pyrrolo[3,2-b]pyridin-3-yl)-1-methyl-5-(trifluoromethoxy)-1H-benzo[d] imidazol-2-amine] were, in that order, “* *” and “* *”.

For the origin of these results see patent US20240279205A1, “NOVEL BENZIMIDAZOLE DERIVATIVE” (Carna Biosciences, Inc., priority 2020, published 2024).
